Measurements taken from US9283257B2, “Compositions comprising solanum tuberosum for lowering cytosolic NADH level to mimic calorie restriction” (Nox Technologies, Inc., priority 2009, dated 2016).
Like-named read-outs stand apart in the source and are kept apart here.

Test system: NADH levels in yeast
Test: yeast NADH autofluorescence assay
Format: cell-based, Saccharomyces cerevisiae
From the text: Reduced forms of NAD(P)H show fluorescence with peaks of excitation and emission in the regions of 340 and 450 nm, respectively, that are used to monitor changes in cytosolic NAD(P)H levels. Because oxidized forms of these pyridine nucleotides have minimal fluorescence at this wavelength, a specific strain of Saccharomyces cerevisiae is used as the primary indicator and the assay is set up in a […] microtiter plate format. Fluorescence measurements are taken with an automated plate reader after 2 h of incubation in the presence of at least three log dilutions of the candidate calorie restriction mimic under investigation.
A 10 mL culture of S. cerevisiae (wild type-BY4741, available from American Type Culture Collection, Manassas, Va., ATCC Number 201388) Genotype/ORF/Gene MATa his3delta1 leu2delta0 met15delta0 ura3delta0. The yeast cells are grown overnight in Yeast Extract Peptone Dextrose (YEPD) liquid medium at 30 C with shaking. OD600 of the culture should be between 0.800 and 1.000 prior to assay usage. To remove unwanted autofluorescence, the medium components are removed by the following process.
Aliquots of the yeast culture are transferred to individual 1 mL micro-centrifuge tubes, and the yeast are pelleted in a bench-top centrifuge by spinning at 1000 RPM for 10 min. Excessive centrifugation speeds (over 1000 rpm) are not used because they could damage the yeast; and live yeast are required for the assay. The medium is decanted, and the yeast are resuspended in an equal volume of 1× phosphate buffered saline (137 mM NaCl, 2.7 mM KCl, 10 mM Na2HPO4, 1.76 mM KH2PO4, pH 7.4) and 7.5 mM glucose (PBSG). […] This preparation of yeast is used in the subsequent auto-fluorescence measurements at an optical density (bulk turbidity) at 600 nm between 0.8 and 1.0.
For fluorescence reading samples are added to a black 96 well cell culture plate. […] A single well of each compound or preparation 5 μL+100 μL of 1×PBSG should be added to account for the fluorescence due to additive.
Experiments are conducted using a Fluoroskan II (Titer-Tek) fluorescent plate reader, which is controlled by Genesis software v 2.0 and used in accordance with the manufacturer' instructions. […] These parameters include a) type—whether the measurement is a single measurement or series of measurement over a given time (kinetic), b) excitation and emission wavelengths (for NADH autofluorescence the excitation wavelength is 340 nm and the emission wavelength is 450 nm.) c) interval at which measurements should be taken (every 20 seconds is sufficient) d) duration of each reading which is set at 5 sec per well, and e) the duration of the measurement which is set to 1 hr. […]

O=CC[C@@H](O)[C@H](O)[C@H](O)CO [2-Deoxyglucose, 2-deoxy-D-glucose]
EC50 (Saccharomyces cerevisiae; read-out: Concentration of known stimulators of NADH oxidation to increase NADH consumption by 50% in the yeast system): 2000 µM | cytosolic NADH levels (glucose of the yeast culture medium replaced with 2DG): reduced

O=C(O)CC(=O)C(=O)O [Oxaloacetic acid]
EC50 (Saccharomyces cerevisiae, read-out: Concentration of known stimulators of NADH oxidation to increase NADH consumption by 50% in the yeast system): 20 µM

CC1(C)CCC2=C(O1)c1ccccc1C(=O)C2=O [β-Lapachrone]
EC50 (yeast system; read-out: Concentration of known stimulators of NADH oxidation to increase NADH consumption by 50% in the yeast system): 40 µM
